Values of other authors, collected in patent US20160279057A1, “Azelastine Formulations For Intranasal Nebulization And Irrigation” (CMPD LICENSING, LLC, priority 2015, published 2016).
Where a name gives a salt, the structure may show the parent alone.

## CN1CCCC(n2nc(Cc3ccc(Cl)cc3)c3ccccc3c2=O)CC1 (stereo not drawn) [Azelastine hydrochloride, azelastine hydrochloride]
ethanol
  solubility in ethanol: slightly soluble
glycerin
  solubility in glycerin: slightly soluble
methanol
  solubility in methanol: sparingly soluble
octanol
  solubility in octanol: slightly soluble
Propylene glycol
  solubility in propylene glycol: sparingly soluble
water
  solubility in water: sparingly soluble
